How the values were obtained:
L-selectin = experiment: ELISA assay: inhibition of L-selectin-IgG chimera binding to 2,3 sLex glycolipid; settings: FIG. 4; tested at several concentrations; results expressed as percent of control binding
Method: (§1) An ELISA assay (Foxall et al, The Journal of Cell Biology (1992) 117:895) is preferably used which consists of the following three steps:
(§2) 1. 2,3 sLex glycolipid is transferred into microtitre wells as solutions and then evaporated off. Excess, which remained unattached, is washed off with water. The wells are then blocked with a blocking agent, preferably BSA.
(§3) 2. Preparation of "multivalent" receptor of the Selectin-IgG chimera is carried out by combining the respective chimera with biotin labelled goat F(ab')2 anti-human IgG (Fc specific) and streptavidin-alkaline phosphatase diluted appropriately and incubated. This allows the soluble multivalent receptor complex to form.
(§4) 3. Potential inhibitors such as glyco-amino acids or glycopeptides of structural formula I are allowed to react with the soluble receptor. This solution is then placed in the microtitre wells that are prepared in step 1. The plate is incubated to allow the soluble receptor to bind to its natural ligand. In the presence of a strong inhibitor only a few of the receptors should be free to bind to the microtitre plate coated with the natural ligand.
(§5) The positive control is the signal produced by the soluble receptor when it is allowed to react with the natural ligand in the microtitre wells in the absence of any inhibitor. This is considered 100% binding. The signal produced by the receptor that is previously treated with an inhibitor (recorded as O.D.), is divided by the signal produced by the positive control and multiplied by 100 to calculate the % receptor bound to the well in the presence of the inhibitor. The reciprocal of this is the % inhibition.
(§6) The glyco-amino acids or glycopeptides of structural formula I can be tested for their ability to bind to a selectin receptor and/or block the binding site of the receptor and thereby prevent a natural ligand from binding to the selectin receptor (Foxall et al, The Journal of Cell Biology (1992) 117:895). A generalized procedure for testing the ligands is given below.
(§7) An ELISA assay is preferably used which consisted of the following three steps:
1. 2,3 sLex glycolipid (25 picomol/well) was transferred into microtitre wells as solutions and evaporated off. Excess, which remained unattached, was washed off with water. The wells were blocked with 5% BSA at room temperature for an hour and washed with PBS containing 1 mM calcium.
2. Preparation of "multivalent" receptor of the Selectin-IgG chimera was carried out by combining the respective chimera (1 μg/mL) with biotin labelled goat F(ab')2 anti-human IgG (Fc specific) and streptavidin-alkaline phosphatase diluted 1:1000 in 1% BSA-PBS (1 mM calcium) and incubating at 37° C. for 15 min. This allowed the soluble multivalent receptor complex to form.
3. Potential inhibitors such as glyco-amino acids or glycopeptides of structural formula I were allowed to react with the soluble receptor at 37° C. for 45 min. This test assumes that optimal binding, between the soluble phase receptor complex and the inhibitor (non-natural ligand), would occur within this time frame. This solution was placed in the microtitre wells that were prepared in step 1. The plate was incubated at 37° C. for 45 minutes to allow the soluble receptor to bind to its natural ligand. In the presence of a strong inhibitor only a few receptors would be free to bind to the microtitre plate coated with the natural ligand.
as §5, with “control was” for “control is”, “it was” for “it is”, “This was” for “This is”, “that was” for “that is”, “O.D.), was” for “O.D.), is”

P-selectin [1] = experiment: P-selectin/HL-60 assay; format: cell-based; settings: FIG. 6; HL-60 cells; tested at several concentrations
Excerpt: The glyco-amino acids or glycopeptides of structural formula I can be tested for their ability to inhibit P-selectin binding to its native ligand. A generalized procedure for testing the ligands is given below. A P-selectin/HL-60 assay is preferably used which consists of the following steps:
1. HL-60 cells are harvested and pelleted by centrifugation. The cells are washed, counted and the volume adjusted appropriately.
2. PVC microtiter plate is blocked with a blocking agent, and washed with TBS-BSA.
3. P-selectin is diluted appropriately in BSA-TBS Ca containing goat F(ab')2 anti-human IgG (Fc spec) and streptavidin-alkaline phosphatase. Positive controls have DMF added to equal the highest concentration of DMF in the sample compounds.
4. Ligands are incubated at room temperature with brisk rotation. […]
Para-nitrophenylphosphonate is added to the plate. […] Aliqouts from each well is transferred to a polystyrene microtiter plate and O.D. read at 405 nm. […] The signal produced by the receptor that is previously treated with an inhibitor (recorded as O.D.), is divided by the signal produced by the positive control and multiplied by 100 to calculate the % receptor bound to the well in the presence of the inhibitor. […]
1. […] The cells were washed three times with TBS without Ca, counted and the volume adjusted to 1.9×10^6 /ml in 1% BSA-TBS Ca just prior to use. […]

[2] = test system: lymphocyte binding to high endothelial venules (HEV), L-selectin mediated; experiment: Stamper-Woodruff assay (lymphocyte adhesion to HEV of lymph node frozen sections); format: cell-based, female Swiss Webster mice; female Sprague-Dawley rats; settings: FIG. 7, percent of relative binding
Excerpt: (§8) Lymphocytes are known to circulate from blood to lymphoid tissues via high endothelial venules (HEV) on lymph nodes. L-selectin is expressed on the surface of lymphocytes and is believed to mediate lymphocyte adhesion by binding to the natural ligand on the HEV. The glyco-amino acids or glycopeptides of structural formula I can be tested for their ability to bind to a selectin receptor and/or block the binding site of the receptor and thereby prevent a natural ligand from binding to the selectin receptor. See, for example, Stoolman et al, The Journal of Cell Biology (1983) 96:722. The Stamper-Woodruff assay is well known in the an, and generally consists of the following three steps:
1. Preparation of the lymphocytes:
(a) The lymphocytes are obtained from the mesenteric nodes of female Swiss Webster mice, by gently teasing tissues with phosphate buffered saline (PBS). The cells are obtained by gently squeezing the cells from the tissues. The cells are dispersed and the cell clumps are removed. The single cell suspension is suspended, washed, and kept on ice until use (less than two hours). Cells are counted and prepared at an appropriate concentration.
(b) The superficial and deep cervical lymph nodes of female Sprague-Dawley rats are dissected and prepared in the same way as the mice.
2. Preparation of frozen sections:
Superficial or deep cervical lymph nodes are dissected from the animals, snap frozen, and immediately placed in a cryostat for sectioning. 10-μm sections are prepared and transferred onto glass slides, and air dried.
3. Potential inhibitors are added to lymphocyte suspensions 10-30 minutes before the start of the binding assay, and unless otherwise stated, are present throughout the subsequent binding incubation.
The frozen sections are used in the order in which they are cut. Aliquots of untreated lymphocytes (positive control), suspensions containing fucoidin (negative control) and suspensions containing potential inhibitors are layered on the sections in an arbitrary sequence such that the control and each test substance are represented once in a series.
The binding of the lymphocytes to the HEV is easily distinguishable from binding elsewhere by virtue of the characteristic picture of tightly packed, darkly stained lymphocytes overlaying the histologically distinctive HEV. The number of adherent lymphocytes on each HEV are counted and the average number of adherent cells per HEV (cells bound per HEV) is calculated. The results are expressed as a percent of relative binding, wherein the positive control is considered to be 100% binding.
as §8, with “were” for “can be”, “art,” for “an,”
(a) The lymphocytes were obtained from the mesenteric nodes of female Swiss Webster mice (23-27 g), by gently teasing tissues by phosphate buffered saline (PBS). […] Cells were counted and prepared at 3-4×10^7 cells/ml. […]

P-selectin [3] = experiment: ELISA assay: inhibition of P-selectin-IgG chimera binding to 2,3 sLex glycolipid; settings: FIG. 5; tested at several concentrations; results expressed as percent of control binding
Method: as §1, §2, §3, §4, §5, §6, §7
1. 2,3 sLex glycolipid (25 picomol/well) was transferred into microtitre wells as solutions and evaporated off. Excess, which remained unattached, was washed off with water. […]
as §5, with “was” for “is”, “This is considered 100% binding.” left out, “The reciprocal of this is the % inhibition.” left out

Row | Compound | inhibition of the binding of sLe^x to L-selectin (L-selectin) | inhibition of the binding of sLe^x to P-selectin in the HL-60 assay (P-selectin [1]) | inhibitory effects in the Stamper-Woodruff assay (cell adhesion) [2] | inhibition of the binding of sLe^x to P-selectin (P-selectin [3])
1 | C[C@H](NC(=O)C[C@@H]1O[C@@H](C)[C@@H](O)[C@@H](O)[C@@H]1O)C(=O)N1CCC[C@H]1C(=O)N[C@@H](Cc1ccccc1)C(=O)O [#2, N-[(1-deoxy-α-L-fucopyranosyl)acetyl]-L-alanine-L-proline-L-phenylalanine] | inhibit the binding of sLe^x to L-selectin | inhibit the binding of sLe^x to P-selectin | inhibitory effects | –
2 | C[C@@H]1O[C@@H](CCCC(=O)N2CCC[C@H]2C(=O)N[C@@H](Cc2ccccc2)C(=O)O)[C@@H](O)[C@H](O)[C@@H]1O [#4, N-[4-(1-deoxy-α-L-fucopyranosyl)n-butanoyl]-L-proline-L-phenylalanine] | inhibit the binding of sLe^x to L-selectin | – | inhibitory effects | inhibit the binding of sLe^x to P-selectin
3 | C[C@@H]1O[C@@H](CC(=O)N[C@@H](CCCCNC(=O)OC(C)(C)C)C(=O)O)[C@@H](O)[C@H](O)[C@@H]1O [#3, N-ω-t-butoxylcarbonyl-N-α-[(1-deoxy-α-L-fucopyranosyl)acetyl]-L-lysine] | inhibit the binding of sLe^x to L-selectin | – | inhibitory effects | inhibit the binding of sLe^x to P-selectin
4 | CC1OC(CCCC(=O)NC(Cc2ccccc2)C(=O)O)C(O)C(O)C1O [#6, N-[4-(1-deoxy-α-L-fucopyranosyl)n-butanoyl]-L-phenylalanine] | inhibit the binding of sLe^x to L-selectin | – | – | –
5 | C[C@@H]1O[C@@H](CC(=O)N2CCC[C@H]2C(=O)N[C@H](C(=O)O)c2ccccc2)[C@@H](O)[C@H](O)[C@@H]1O [#5, N-[(1-deoxy-α-L-fucopyranosyl)acetyl]-L-proline-L-phenylglycine] | inhibit the binding of sLe^x to L-selectin | – | inhibitory effects | inhibit the binding of sLe^x to P-selectin
6 | C[C@@H]1O[C@@H](CC(=O)N2CCC[C@H]2C(=O)N[C@@H](Cc2ccccc2)C(=O)O)[C@@H](O)[C@H](O)[C@@H]1O [#1, N-[(1-deoxy-α-L-fucopyranosyl)acetyl]-L-proline-L-phenylalanine] | inhibit the binding of sLe^x to L-selectin | inhibit the binding of sLe^x to P-selectin | inhibitory effects | inhibit the binding of sLe^x to P-selectin

Source: patent US5508387A, “Selectin binding glycopeptides” (Glycomed Incorporated, priority 1993, dated 1996)
